From ChEMBL document CHEMBL1201862, “PubChem BioAssay data set” (2004)
The source made the active and inactive calls.

Tests used:
[1] = potency of ADAM10 substrate cleavage blockers – biochemical, QFRET, dose response (AID 743254);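 also: ADAM10 enzyme with the DM2 quenched FRET peptide as substrate; EDANS fluorescence gain as the protease cuts the substrate; inhibitor potency against ADAM10 proteolytic activity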
[2] = target: Disintegrin and metalloproteinase domain-containing protein 17 (Homo sapiens, UniProt P78536); assay: inhibition of ADAM17 substrate cleavage – biochemical, quenched FRET substrate, counter-screen for ADAM10 exosite inhibitor project, dose response (AID 743253)
[3] = A Cell-Based Confirmatory Screen for Compounds that Inhibit VEEV, TC-83 (8).; type: functional
[4] = liver cell line viability loss – HepG2, luminescence plate reader, powder samples, set 2, cytotoxicity control, dose response (AID 651860); type: functional, cell-based
[5] = kidney cell line viability loss – HEK293T, luminescence plate reader, powder samples, set 4, cytotoxicity control, dose response (AID 651863); type: functional, cell-based; details: HEK293
HeLa = assay: viability loss in HeLa cells – cell-based, ATP luminescence, cherry-pick samples, cytotoxicity control, dose response (AID 687004); type: functional; details: Homo sapiens
Major prion protein = Major prion protein (Homo sapiens, UniProt P04156); type: functional, cell-based
[6] = HEK-293T viability loss after treatment – luminescence, T-cell screen hits, cytotoxicity control for TCR NF-kB inhibitor project, dose response (AID 489026); type: functional, cell-based;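 also: cells exposed to compound about 14 hours before the viability readout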
Paired box protein Pax-8 = Paired box protein Pax-8 (Homo sapiens, UniProt Q06710); assay: PAX8 transcriptional activity inhibition in RMG-I – RMG-I cells, luciferase, cherry-pick, dose response (AID 687027); type: functional, cell-based;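 also: luciferase reporter driven by Pax8 target thyroperoxidase promoter measured by SteadyGlo luminescence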
[7] = inhibitors acting on PAX2 in cells – cell-based, plate reader, dry powder samples, selectivity assay for PAX8 inhibitor project, dose response (AID 743048); type: functional;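 also: HEK293 cells carrying a WT1 promoter luciferase reporter driven by expressed Pax2; potency is for inhibition of Pax2 driven reporter signal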
[8] = COV362 cell viability loss – plate reader, dry powder, SA12, cytotoxicity control for PAX8 inhibitor project, dose response (AID 743144); type: functional, cell-based
[9] = toxicity toward immortalized ovarian surface epithelium – cell-based, plate reader, dry powder samples, cytotoxicity control for PAX8 inhibitor project, dose response (AID 743045); type: functional
[10] = A2780 cell killing – plate reader, dry powder samples, cytotoxicity control, dose response (AID 743046); type: functional, cell-based
[11] = OVCAR-3 cell viability loss – plate reader, dry powder samples, PAX8 inhibitor project, dose response (AID 743044); type: functional, cell-based
[12] = PAX5 cellular inhibition readout – cell-based, plate reader, dry powder samples, selectivity assay for PAX8 inhibitor project, dose response (AID 743047); type: functional;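 also: HEK293 cells carrying a Pax5 driven CD19 promoter luciferase reporter; potency of inhibitors that lower reporter luminescence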
[13] = A549 cell cytotoxicity, dose response, cytotoxicity control, plate reader, cherry-pick, antagonist series (AID 743412); type: functional, cell-based
[14] = toxicity toward HepG2 liver cells – cell-based, plate reader, cherry-pick, antagonist series, cytotoxicity control, dose response (AID 743416); type: functional
[15] = IGROV1 cell killing – plate reader, dry powder samples, PAX8 inhibitor project, dose response (AID 743043); type: functional, cell-based; details: IGROV-1
[16] = blockers of bursicon-stimulated LGR2 cAMP reporter – cell-based, HEK293, CRE-luciferase reporter, cherry pick, set 2, dose response (AID 743343); type: functional;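 also: transfected cells were stimulated with diluted bursicon conditioned medium after compound addition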
[17] = OVCAR4 cell viability loss – plate reader, dry powder, SA11, cytotoxicity control for PAX8 inhibitor project, dose response (AID 743150); type: functional, cell-based; details: OVCAR-4
[18] = COV434 cell viability loss – plate reader, dry powder, SA7, cytotoxicity control for PAX8 inhibitor project, dose response (AID 743145); type: functional, cell-based
[19] = OV-90 cell viability loss – plate reader, dry powder, SA8, PAX8 inhibitor project, dose response (AID 743149); type: functional, cell-based
[20] = general cell-killing toxicity readout – plate reader, dry powder samples, cytotoxicity control for PAX8 inhibitor project, dose response (AID 743021); type: functional, cell-based
[21] = blockade of melanocortin 4 receptor signaling – cell-based, plate reader, cherry pick, counter-screen for LGR2 antagonist project, dose response (AID 743444); type: functional;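 also: transfected HEK 293 cells stimulated with alpha-MSH peptide; potency of inhibitors of the alpha-MSH evoked signal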
[22] = PAX8-dependent cell viability loss – plate reader, dry powder, dose response (AID 743049); type: functional, cell-based
[23] = viability loss in HEK293 cells – cell-based, plate reader, cherry-picked samples, cytotoxicity control, dose response (AID 743446); type: functional
[24] = target: COUP transcription factor 2 (Homo sapiens, UniProt P24468); assay: Luminescence-based cell-based high throughput dose response assay to identify inhibitors of COUP-TFII (NR2F2).; type: functional;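 also: HEK293 cells transiently cotransfected with COUP-TFII expression vector and reporter; luciferase reporter luminescence driven by COUP-TFII from the pX2-168 reporter plasmid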

## O=C(CC1S/C(=N\c2ccccc2)N(Cc2ccccn2)C1=O)Nc1ccc(Br)cc1 (stereo not drawn)
[1]
  IC50: 37.4 µM (inactive)
[2]
  IC50: > 69.5 µM (inactive)

## CN1CCN(C)/C(=N/c2cc(Cl)c(C#N)cc2C(=O)Nc2ccccc2)C1
[3]
  IC50: < 0.26 µM (active)

## COc1ccc(CC/N=C2\C=C(NS(=O)(=O)c3c(C)cc(C)cc3C)c3ccccc3C2=O)cc1
[4]
  AC50: > 52 µM (inactive)
[5]
  AC50: > 52 µM (inactive)

## C[C@@H]1CN([C@@H](C)CO)C(=O)c2cc(NC(=O)Nc3cccc4ccccc34)ccc2O[C@@H]1CN(C)C(=O)Nc1ccccc1
HeLa
  AC50: 0.252 µM (active)

## CN(C)S(=O)(=O)c1ccc(N2CCCC2)c(C(=O)Nc2nc3ccccc3s2)c1
Major prion protein
  IC50: 10.4 µM (inactive)
cells
  IC50: > 138 µM (inactive)

## Cc1cnc(NC(=O)c2ccc3c(c2)OCCO3)s1
[6]
  IC50: > 80 µM (inactive)
Paired box protein Pax-8
  AC50: 3.49 µM (active)
[7]
  AC50: 13.4 µM (active)
[8]
  AC50: 10.2 µM (active)
[9]
  AC50: 26 µM (active)
[10]
  AC50: 28.8 µM (active)
[11]
  AC50: 18.4 µM (active)
[12]
  AC50: 17.5 µM (active)
[13]
  AC50: 5.12 µM (active)
[14]
  AC50: 36 µM (active)
[15]
  AC50: 20.7 µM (active)
[16]
  AC50: 0.854 µM (active)
[17]
  AC50: 26.8 µM (active)
[18]
  AC50: 29.4 µM (active)
[19]
  AC50: 9.33 µM (active)
[20]
  AC50: 52.3 µM (active)
[21]
  AC50: 0.794 µM (active)
[22]
  AC50: 13.1 µM (active)
[23]
  AC50: 31.4 µM (active)

## Cc1nn(C)c(C)c1NC(=O)COc1ccc(Cl)cc1Br
[24]
  IC50: 8.76 µM (active)
